Measurements: patent publication US7879868B2 (Novartis AG, priority 2002, dated 2011)
Like-named read-outs stand apart in the source and are kept apart here. One block for each compound: values may come before it.

What was measured:
Saos2pcDNA#3#2 cells = assay: Growth inhibition in vector control Saos2 cells; format: cell-based, human
Saos2BCRPMUT#10 cells = assay: cells
Saos2BCRP#4 cells = assay: cells
[1] = Effect of imatinib on irinotecan pharmacokinetics in mice; settings: for SN-38 plasma exposure: irinotecan 10 mg/kg oral; for bioavailability: mouse, plasma, oral
Description: Ci: rate of clearance; Ka: absorption rate; F: calculated bioavailability (relative to intravenous dosing).

BCRP = biological target: T1, BCRP (Homo sapiens, UniProt Q9UNQ0)
T1 sequence (Q9UNQ0 1-655): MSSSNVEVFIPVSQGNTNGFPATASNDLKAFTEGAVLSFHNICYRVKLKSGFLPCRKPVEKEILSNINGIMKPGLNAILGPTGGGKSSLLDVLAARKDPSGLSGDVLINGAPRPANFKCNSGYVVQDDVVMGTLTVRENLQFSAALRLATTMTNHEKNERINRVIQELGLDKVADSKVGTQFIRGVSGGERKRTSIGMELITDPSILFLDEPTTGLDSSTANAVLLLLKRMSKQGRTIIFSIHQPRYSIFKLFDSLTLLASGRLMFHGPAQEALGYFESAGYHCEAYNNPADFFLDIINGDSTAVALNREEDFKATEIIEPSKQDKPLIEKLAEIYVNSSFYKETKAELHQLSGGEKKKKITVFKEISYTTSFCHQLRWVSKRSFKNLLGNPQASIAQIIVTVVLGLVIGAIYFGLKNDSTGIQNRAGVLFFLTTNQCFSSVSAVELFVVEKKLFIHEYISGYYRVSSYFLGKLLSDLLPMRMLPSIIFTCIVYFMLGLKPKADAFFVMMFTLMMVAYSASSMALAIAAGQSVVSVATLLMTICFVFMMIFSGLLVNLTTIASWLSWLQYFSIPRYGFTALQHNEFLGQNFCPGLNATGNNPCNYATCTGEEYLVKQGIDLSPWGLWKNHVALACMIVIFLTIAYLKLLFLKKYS

[2] = Homo sapiens, SAOS-2, read-out: concentration of topotecan causing 50% growth inhibition, in presence of 1 μM imatinib
[3] = Homo sapiens, SAOS-2, read-out: concentration of topotecan causing 50% growth inhibition, in presence of 3 μM imatinib
[4] = Homo sapiens, SAOS-2, read-out: concentration of topotecan causing 50% growth inhibition, in presence of 5 μM imatinib
[5] = Homo sapiens, SAOS-2, read-out: concentration of topotecan causing 50% growth inhibition, topotecan alone
[6] = read-out: concentration of SN-38 causing 50% growth inhibition (IC50), imatinib 0 μM
[7] = read-out: concentration of SN-38 causing 50% growth inhibition (IC50), imatinib 0.1 μM
[8] = read-out: concentration of SN-38 causing 50% growth inhibition (IC50), imatinib 0.3 μM
[9] = read-out: concentration of SN-38 causing 50% growth inhibition (IC50), imatinib 1.0 μM
[10] = read-out: concentration of SN-38 causing 50% growth inhibition (IC50), imatinib 3.0 μM

- IC50 (Saos2BCRPMUT#10 cells; Homo sapiens, SAOS-2, read-out: IC50 concentration of topotecan, Saos2Mut#10 cells): 9 nM
- IC50 (Saos2BCRP#4 cells; Homo sapiens, SAOS-2, read-out: IC50 concentration of topotecan, Saos2BCRP#4 cells): 167 nM
SMILES: CC[C@@]1(O)C(=O)OCc2c1cc1n(c2=O)Cc2cc3c(CN(C)C)c(O)ccc3nc2-1 [topotecan]
- IC50 (Saos2pcDNA#3#2 cells; Homo sapiens, SAOS-2, Saos2pcDNA cells, read-out: IC50 concentration of topotecan): 16 nM
- IC50 (Saos2pcDNA#3#2 cells; Homo sapiens, SAOS-2, in presence of 1 μM imatinib, read-out: concentration of topotecan causing 50% growth inhibition): 23 nM
- IC50 (Saos2pcDNA#3#2 cells; Homo sapiens, SAOS-2, in presence of 3 μM imatinib, read-out: concentration of topotecan causing 50% growth inhibition): 20 nM
- IC50 (Saos2pcDNA#3#2 cells; Homo sapiens, SAOS-2, in presence of 5 μM imatinib, read-out: concentration of topotecan causing 50% growth inhibition): 23 nM
- IC50 (Saos2pcDNA#3#2 cells; Homo sapiens, SAOS-2, topotecan alone, read-out: concentration of topotecan causing 50% growth inhibition): 20 nM
- IC50 (Saos2BCRPMUT#10 cells; [2]): 18 nM
- IC50 (Saos2BCRPMUT#10 cells; [3]): 9.9 nM
- IC50 (Saos2BCRPMUT#10 cells; [4]): 15 nM
- IC50 (Saos2BCRPMUT#10 cells; [5]): 9 nM
- IC50 (Saos2BCRP#4 cells; [2]): 35 nM
- IC50 (Saos2BCRP#4 cells; [3]): 24 nM
- IC50 (Saos2BCRP#4 cells; [4]): 22 nM
- IC50 (Saos2BCRP#4 cells; [5]): 254 nM

SMILES: CCc1c2c(nc3ccc(O)cc13)-c1cc3c(c(=O)n1C2)COC(=O)[C@]3(O)CC [SN-38, 7-ethyl-10-hydroxycamptothecin]
- SN-38 plasma exposure ([1]; mice, with imatinib 50 mg/kg oral): 775 ng/h/mL
- SN-38 plasma exposure ([1]; mice, without imatinib): 263 ng/h/mL
- IC50 (Saos2pcDNA#3#2 cells; [6]): 2.9 nM
- IC50 (Saos2pcDNA#3#2 cells; [7]): 2.7 nM
- IC50 (Saos2pcDNA#3#2 cells; [8]): 2.7 nM
- IC50 (Saos2pcDNA#3#2 cells; [9]): 3.3 nM
- IC50 (Saos2pcDNA#3#2 cells; [10]): 3.7 nM
- IC50 (Saos2BCRPMUT#10 cells; [6]): 1.7 nM
- IC50 (Saos2BCRPMUT#10 cells; [7]): 1.7 nM
- IC50 (Saos2BCRPMUT#10 cells; [8]): 1.6 nM
- IC50 (Saos2BCRPMUT#10 cells; [9]): 1.7 nM
- IC50 (Saos2BCRPMUT#10 cells; [10]): 1.6 nM
- IC50 (Saos2BCRP#4 cells; [6]): > 100 nM
- IC50 (Saos2BCRP#4 cells; [7]): 82 nM
- IC50 (Saos2BCRP#4 cells; [8]): 29 nM
- IC50 (Saos2BCRP#4 cells; [9]): 14 nM
- IC50 (Saos2BCRP#4 cells; [10]): 7 nM

SMILES: Cc1ccc(NC(=O)c2ccc(CN3CCN(C)CC3)cc2)cc1Nc1nccc(-c2cccnc2)n1 [imatinib]
- effect of imatinib on oral bioavailability of irinotecan ([1]; mice, imatinib 50 mg/kg oral + irinotecan 10 mg/kg oral): enhances oral bioavailability of irinotecan
- reversal of BCRP-mediated resistance to topotecan (summary of Table 1) (BCRP): complete reversal of BCRP-mediated resistance to topotecan

- bioavailability [1]: 23 ± 2%
- bioavailability ([1]; 10 mg/kg): 9 ± 2%
SMILES: CCc1c2c(nc3ccc(OC(=O)N4CCC(N5CCCCC5)CC4)cc13)-c1cc3c(c(=O)n1C2)COC(=O)[C@]3(O)CC [IRN]
